Three compounds from BindingDB's records for doi:10.1016/j.bmcl.2003.08.070 (Wyeth Research, 2003) can be followed below.

For assay [1], the target named is T1, Leukotriene B4 receptor 1 (Homo sapiens, UniProt Q15722). Nature of the assay: (§1) Inhibitory concentration against LTB4 receptor determined in human neutrophils PMN assay.
For assay [2], the target named is Leukotriene B4 receptor 1 (Mus musculus) (UniProt O88855). In words: Inhibitory concentration against LTB4 receptor determined in mast cell line MC-9 assay.
Assay [3] deals with T1, Leukotriene B4 receptor 1. In words: ChEBML_99664.
Excerpt: as §1

T1 sequence (Q15722 whole entry): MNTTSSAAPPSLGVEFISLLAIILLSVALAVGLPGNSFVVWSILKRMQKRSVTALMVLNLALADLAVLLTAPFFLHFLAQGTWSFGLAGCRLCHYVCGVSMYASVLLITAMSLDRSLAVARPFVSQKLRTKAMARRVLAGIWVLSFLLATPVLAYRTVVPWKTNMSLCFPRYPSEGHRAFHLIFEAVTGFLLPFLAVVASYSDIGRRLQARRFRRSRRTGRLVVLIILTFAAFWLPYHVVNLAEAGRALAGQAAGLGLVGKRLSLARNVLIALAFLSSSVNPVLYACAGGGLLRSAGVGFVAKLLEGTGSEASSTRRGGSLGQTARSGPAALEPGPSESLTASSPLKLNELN
Leukotriene B4 receptor 1 (Mus musculus), sequence (O88855 whole entry, looked up): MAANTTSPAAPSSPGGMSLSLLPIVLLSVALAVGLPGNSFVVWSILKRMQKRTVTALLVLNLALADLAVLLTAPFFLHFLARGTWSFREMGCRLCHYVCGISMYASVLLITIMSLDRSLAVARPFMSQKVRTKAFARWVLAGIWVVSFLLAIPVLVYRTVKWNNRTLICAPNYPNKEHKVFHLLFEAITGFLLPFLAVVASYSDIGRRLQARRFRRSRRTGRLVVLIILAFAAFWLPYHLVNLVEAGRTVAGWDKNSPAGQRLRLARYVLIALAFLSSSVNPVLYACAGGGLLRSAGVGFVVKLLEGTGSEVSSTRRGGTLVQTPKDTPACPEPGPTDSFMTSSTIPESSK

One may read the IC50 as the concentration needed to halve the response being measured. Regarding `COc1cc(C(=O)O)ccc1Cc1cn(C(c2ccccc2)c2ccccc2)c2ccc(C)cc12` [4-(1-Benzhydryl-5-methyl-1H-indol-3-ylmethyl)-3-methoxy-benzoic acid], in assay [1], the IC50 turned out to be 400 nM.
`COc1cc(C(=O)O)ccc1Cc1cn(C(c2ccccc2)c2ccccc2)c2ccc([N+](=O)[O-])cc12` [4-(1-Benzhydryl-5-nitro-1H-indol-3-ylmethyl)-3-methoxy-benzoic acid]: the IC50 in assay [1] came out at 500 nM; in assay [2], 2800 nM.
For `COc1cc(C(=O)O)ccc1Cc1cn(C(c2ccccc2)c2ccccc2)c2ccc(Br)cc12` [4-(1-Benzhydryl-5-bromo-1H-indol-3-ylmethyl)-3-methoxy-benzoic acid], the IC50 in assay [3] came to 400 nM; in assay [2] it was 1100 nM.
